# According to ChEMBL document CHEMBL4270582, “Diterpenoid lead stevioside and its hydrolysis products steviol and isosteviol: Biological activity and structural modification” (Eur J Med Chem, 2018):
# How the values were obtained:
# [1] = test system: HepG2; test: Antiproliferative activity against human HepG2 cells; type: functional, cell-based
# [2] = test system: MRC5; test: Antiproliferative activity against human MRC5 cells after 24 hrs by MTT assay; type: cell-based; conditions: MRC5, 24 h
# [3] = test system: NCI-H460; test: Antiproliferative activity against human H460 cells after 24 hrs by MTT assay; type: functional, cell-based; conditions: NCI-H460, 24 h
# [4] = test system: HepG2; test: Antiproliferative activity against human HepG2 cells after 24 hrs by MTT assay; type: functional, cell-based; conditions: HepG2, 24 h
# [5] = test system: HL-60; test: Antiproliferative activity against human HL60 cells after 24 hrs by MTT assay; type: functional, cell-based; conditions: HL-60, 24 h
# [6] = test system: Huh-7; test: Antiproliferative activity against human HuH7 cells by MTT assay; type: functional, cell-based
# [7] = test system: HepG2; test: Antiproliferative activity against human HepG2 cells by MTT assay; type: functional, cell-based
# [8] = test system: HCT-116; test: Antiproliferative activity against human HCT116 cells by MTT assay; type: functional, cell-based
# [9] = test system: SW-620; test: Antiproliferative activity against human SW620 cells by MTT assay; type: functional, cell-based
# [10] = test system: ASPC1; test: Antiproliferative activity against human AsPC1 cells after 48 hrs by MTT assay; type: functional, cell-based; conditions: ASPC1, 48 h
# [11] = test system: HCT-116; test: Antiproliferative activity against human HCT116 cells after 48 hrs by MTT assay; type: functional, cell-based; conditions: HCT-116, 48 h
# [12] = test system: A549; test: Antiproliferative activity against human A549 cells after 48 hrs by MTT assay; type: functional, cell-based; conditions: A549, 48 h
# [13] = Inhibition of calf thymus DNA polymerase alpha using poly(dA)template/oligo(dT) (12 to 18 residues) primer and dTTP as substrate after 10 mins; set-up: species or system Bos taurus
# [14] = test system: MCF7; test: Antiproliferative activity against human MCF7 cells; type: functional, cell-based
# [15] = test system: Mycobacterium tuberculosis; test: Antimycobacterial activity against Mycobacterium tuberculosis H37Rv after 10 to 12 days by double serial dilution method; type: functional
# [16] = test system: MCF7; test: Antiproliferative activity against human MCF7 cells after 48 hrs by SRB assay; type: functional, cell-based; conditions: MCF7, 48 h
# [17] = test system: Mycobacterium tuberculosis; test: Antimycobacterial activity against Mycobacterium tuberculosis H37Rv after 11 days by serial dilution method; type: functional; conditions: 264 h
# [18] = test system: Mycobacterium tuberculosis; test: Antimycobacterial activity against Mycobacterium tuberculosis H37Rv after 10 to 12 days by vertical diffusion method; type: functional
# [19] = test system: Mycolicibacter terrae; test: Antimycobacterial activity against Mycobacterium terrae after 10 to 12 days by vertical diffusion method; type: functional
# [20] = test system: Mycobacterium avium; test: Antimycobacterial activity against Mycobacterium avium after 10 to 12 days by vertical diffusion method; type: functional
# [21] = test system: Candida albicans; test: Antifungal activity against Candida albicans 855-653 by serial dilution method; type: functional
# [22] = test system: Staphylococcus aureus; test: Antibacterial activity against Staphylococcus aureus 209p by serial dilution method; type: functional
# [23] = test system: SK-BR-3; test: Antiproliferative activity against human SKBR3 cells after 48 hrs by MTT assay; type: functional, cell-based; conditions: SK-BR-3, 48 h
# [24] = test system: AZ-521 cell line; test: Antiproliferative activity against human AZ-521 cells after 48 hrs by MTT assay; type: functional, cell-based; conditions: AZ-521, 48 h
# [25] = test system: HL-60; test: Antiproliferative activity against human HL60 cells after 48 hrs by MTT assay; type: functional, cell-based; conditions: HL-60, 48 h
# [26] = test system: Jejunum; test: Downregulation of glucose uptake in Syrian golden hamster jejunum at 1 mM after 60 mins relative to control; type: functional, Mesocricetus auratus
# [27] = test system: Syrian golden hamster; test: Induction of insulin sensitivity in Syrian golden hamster assessed as uplift of glucose uptake in normal condition relative to control; type: functional, Mesocricetus auratus
# [28] = test system: Syrian golden hamster; test: Induction of insulin sensitivity in Syrian golden hamster assessed as uplift of glucose uptake in insulin-resistance condition relative to control; type: functional, Mesocricetus auratus
# [29] = test system: Bacillus subtilis; test: Antibacterial activity against Bacillus subtilis CMCC (B) 63501 after 6 hrs by two fold serial dilution method; type: functional; conditions: CMCC (B) 63501, 6 h
# [30] = test system: HCT-116; test: Antiproliferative activity against human HCT116 cells after 72 hrs by MTT assay; type: functional, cell-based; conditions: HCT-116, 72 h
# [31] = test system: B16-F10; test: Antiproliferative activity against mouse B16F10 cells; type: functional, cell-based
# [32] = test system: HeLa; test: Antiproliferative activity against human HeLa cells after 48 hrs by MTT assay; type: functional, cell-based
smiles,measurement,setting,value
CCCCCCCC(=O)CO[C@]1(C)CCC[C@@]2(C)[C@@H]3CC[C@@]4(C)C[C@]3(CC[C@@H]21)CC4=O,IC50,[1],2 µM
C[C@@]12CC[C@@H]3[C@@](CC[C@H]4[C@@]3(C)CCC[C@@]4(C)C(=O)NCCNC(=O)[C@]3(C)CCC[C@@]4(C)[C@@H]5CC[C@@]6(C)C[C@]5(CC[C@@H]43)CC6=O)(CC1=O)C2,IC50,[2],22.6 µM
same,IC50,[3],14 µM
same,IC50,[4],17.4 µM
same,IC50,[5],4.8 µM
CCOC(=O)[C@]1(C)CCC[C@@]2(C)[C@@H]3CC[C@@]4(C)C[C@]3(CC[C@@H]21)C/C4=N\OC(=O)CCC(=O)OC(C)CCOc1no[n+]([O-])c1S(=O)(=O)c1ccccc1 (stereo partly specified),IC50,[6],1.73 µM
same,IC50,[7],2.42 µM
same,IC50,[8],0.94 µM
same,IC50,[9],1.15 µM
C[C@@]12CC[C@@H]3[C@@](CC[C@H]4[C@@]3(C)CCC[C@@]4(C)C(=O)OCc3cn(CCCc4ccccc4)nn3)(CC1=O)C2,IC50,[10],4.79 µM
same,IC50,[11],6.6 µM
same,IC50,[12],9.95 µM
C[C@@]12CC[C@@H]3[C@@](CC[C@H]4[C@@]3(C)CCC[C@@]4(C)C(=O)O)(CC1=O)C2 [ISOSTEVIOL],IC50,[13],64 µM
same,IC50,[14],2.18 µg/mL
C[C@@]12CC[C@@H]3[C@@](CC[C@H]4[C@@]3(C)CCC[C@@]4(C)C(=O)O)(C[C@H]1CC(=O)CCCCCCCCC(=O)C[C@@H]1C[C@]34CC[C@H]5[C@@H](CCC[C@H]5C(=O)O)[C@@H]3CC[C@@]1(C)C4)C2,MIC,[15],12.5 µg/mL
C=C1C[C@@]23CC[C@H]4[C@@](C)(CCC[C@@]4(C)C(=O)O)[C@@H]2CC[C@]1(O)C3 [STEVIOL],IC50,[16],185 µM
NNC(=O)c1ccncc1 [ISONIAZID],MIC,[17],0.5 µg/mL
C[C@@]12CC[C@@H]3[C@@](CC[C@H]4[C@@]3(C)CCC[C@@]4(C)C(=O)O[C@@H]3O[C@H](C(=O)NN)[C@@H](O)[C@H](O)[C@H]3O)(C/C1=N\N)C2,MIC,[18],0.7 µg/mL
same,MIC,[19],0.35 µg/mL
same,MIC,[20],0.7 µg/mL
C[C@@]12CC[C@@H]3[C@@](CC[C@H]4[C@@]3(C)CCC[C@@]4(C)C(=O)OCC[N+](C)(C)Cc3ccccc3)(CC1=O)C2.[Br-],MIC,[21],31.2 µg/mL
same,MIC,[22],31.2 µg/mL
COC(=O)[C@]1(C)CCC[C@@]2(C)[C@@H]3CC[C@@]4(C)C[C@]3(CC[C@@H]21)C/C4=N\NC(=O)c1ccccn1,MIC,[17],10 µg/mL
COP(=O)(OC)C(C)(C)C/C(C)=N/N=C1\C[C@]23CC[C@H]4[C@@](C)(CCC[C@@]4(C)C(=O)N/N=C(\C)CC(C)(C)P(=O)(OC)OC)[C@@H]2CC[C@@]1(C)C3,MIC,[17],5 µg/mL
CCN(CC)CCNC(=O)c1c(C)[nH]c(/C=C2\C(=O)Nc3ccc(F)cc32)c1C [SUNITINIB],IC50,[7],7.78 µM
C=C1C[C@@]23CC[C@H]4[C@@H](CCC[C@@]4(C)COC(=O)/C=C/C(F)(F)F)[C@@H]2CC[C@]1(O)C3,IC50,[23],1.2 µM
same,IC50,[24],1.7 µM
same,IC50,[25],2.9 µM
same,IC50,[12],4.1 µM
CCOC(=O)[C@]1(C)CCC[C@@]2(C)[C@@H]3CC[C@@]4(C)C[C@]3(CC[C@@H]21)C/C4=N\OC(=O)CCC(=O)OCCOc1no[n+]([O-])c1S(=O)(=O)c1ccccc1,IC50,[6],2.86 µM
same,IC50,[7],2.95 µM
same,IC50,[8],0.48 µM
same,IC50,[9],3.02 µM
C=C1C[C@@]23CC[C@H]4[C@@](C)(CCC[C@@]4(C)C(=O)NCCNC(=O)[C@]4(C)CCC[C@@]5(C)[C@@H]6CC[C@]7(O)C[C@@]6(CC[C@@H]54)CC7=C)[C@@H]2CC[C@]1(O)C3,IC50,[2],17 µM
same,IC50,[3],10.7 µM
same,IC50,[4],17.9 µM
same,IC50,[5],4.3 µM
C=C1C[C@@]23CC[C@H]4[C@@](C)(CCC[C@@]4(C)C(=O)O[C@@H]4O[C@H](CO)[C@@H](O)[C@H](O)[C@H]4O)[C@@H]2CC[C@]1(O[C@@H]1O[C@H](CO)[C@@H](O)[C@H](O)[C@H]1O[C@@H]1O[C@H](CO)[C@@H](O)[C@H](O)[C@H]1O)C3 [STEVIOSIDE],Activity,[26],43%
same,fold change (FC),[27],2.1
same,fold change (FC),[28],4.4
COC(=O)[C@]1(C)CCC[C@@]2(C)[C@@H]3CC[C@@]4(C)C[C@]3(CC[C@@H]21)C/C4=N\NC(=O)c1cccnc1,MIC,[17],10 µg/mL
C=C[C@]12CC[C@H]3[C@@](C)(CCC[C@@]3(C)C(=O)OCC)[C@@H]1CC[C@](C)(/C=N/O)C2,MIC,[29],1.56 µg/mL
CCOC(=O)[C@]1(C)CCC[C@@]2(C)[C@@H]3CC[C@@]4(C)C[C@]3(CC[C@@H]21)[C@H](Cn1cc(COc2ccccc2C=O)nn1)[C@H]4O,IC50,[30],2.98 µM
C[C@@]12CC[C@@H]3[C@@](CC[C@H]4[C@@]3(C)CCC[C@@]4(C)C(=O)NNC(=O)CCCCC(=O)NNC(=O)[C@]3(C)CCC[C@H]4[C@@H]5CC[C@@]6(C)C[C@]5(CC[C@@H]43)CC6=O)(CC1=O)C2,MIC,[17],5 µg/mL
C=C1C(=O)[C@@]2(C)CC[C@@H]3[C@]1(CC[C@H]1[C@@]3(C)CCC[C@@]1(C)C(=O)NCC(=O)OCCCOc1no[n+]([O-])c1S(=O)(=O)c1ccccc1)C2,IC50,[31],0.02 µM
C[C@@]12CC[C@@H]3[C@@](CC[C@H]4[C@@]3(C)CCC[C@@]4(C)C(=O)OCc3cn(-c4ccccc4)nn3)(CC1=O)C2,IC50,[32],5.83 µM
